In patent publication US20030134842A1, “METHODS FOR THE TREATMENT OR PREVENTION OF INFLAMMATORY DISEASES CHARACTERIZED BY ABNORMAL CELL PROLIFERATION” (priority 1997, published 2003):
Like-named read-outs stand apart in the source and are kept apart here.

Key:
Format in all cases: cell-based
[1] = system: HT29; test: SRB antiproliferative assay HT29; conditions: Homo sapiens
Source text: (§1) The cells were passaged using Trypsin (Gibco).

[2] = system: MMRU; test: SRB antiproliferative assay MMRU; conditions: Homo sapiens
Source text: as §1

[3] = system: HTB174; test: SRB antiproliferative assay HTB174; conditions: HTB174 (Lung), 5% FCS/5 day incubation; read-out: Test Compound IC50
Source text: as §1

[4] = system: A549; test: SRB antiproliferative assay A549; conditions: Homo sapiens
Source text: as §1

[5] = system: MCF7; test: SRB antiproliferative assay MCF7; conditions: Homo sapiens
Source text: as §1

[6] = biological target: T1, Ca2+-activated potassium channel (Gardos channel) of erythrocytes (Homo sapiens, UniProt O15554); test: Gardos channel assay
T1 construct: endogenous in cells; host or cells: erythrocytes
T1 sequence (O15554 whole entry): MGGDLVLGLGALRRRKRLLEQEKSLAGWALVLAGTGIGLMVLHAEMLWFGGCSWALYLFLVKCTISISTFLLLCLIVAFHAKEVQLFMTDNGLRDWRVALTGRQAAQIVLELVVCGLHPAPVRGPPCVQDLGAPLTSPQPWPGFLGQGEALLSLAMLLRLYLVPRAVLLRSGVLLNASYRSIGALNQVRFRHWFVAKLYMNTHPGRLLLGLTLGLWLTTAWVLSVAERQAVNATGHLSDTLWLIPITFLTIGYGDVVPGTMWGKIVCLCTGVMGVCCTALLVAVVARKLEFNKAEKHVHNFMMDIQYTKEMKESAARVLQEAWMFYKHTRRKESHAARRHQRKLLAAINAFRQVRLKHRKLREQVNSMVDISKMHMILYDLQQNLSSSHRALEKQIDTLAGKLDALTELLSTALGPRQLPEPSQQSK

[7] = system: HEPG2; test: SRB antiproliferative assay HEPG2; conditions: Homo sapiens
Source text: as §1

[8] = system: NIH 3T3 mouse fibroblast cells; test: Mitogenic assay (mitogen-induced cell proliferation); conditions: for IC50: mitogen-induced cell proliferation
[9] = system: U118MG; test: SRB antiproliferative assay U118MG; conditions: Homo sapiens, U-118-MG; U118MG, 5% FCS/3 days; read-out: Test Compound IC50 Value in Cell Lines
Source text: as §1

[10] = HT-29, HT29 (Colon), 5% FCS/5 day incubation, read-out: Test Compound IC50
[11] = MMRU (Melanoma), 5% FCS/5 day incubation, read-out: Test Compound IC50
[12] = A549, A549 (Lung), 5% FCS/5 day incubation, read-out: Test Compound IC50
[13] = MCF7 (Breast), 5% FCS/5 day incubation, read-out: Test Compound IC50
[14] = HEPG2 (Hepatocel), 5% FCS/5 day incubation, read-out: Test Compound IC50
[15] = HT-29, HT29, 5% FCS/2 days, read-out: Test Compound IC50 Value in Cell Lines
[16] = MMRU, 5% FCS/2 days, read-out: Test Compound IC50 Value in Cell Lines
[17] = A549, A549, 5% FCS/2 days, read-out: Test Compound IC50 Value in Cell Lines
[18] = Mus musculus, NIH3T3, NIH 3T3 mouse fibroblast cells
[19] = HT-29, HT29, 5% FCS/3 days, read-out: Test Compound IC50 Value in Cell Lines
[20] = MMRU, 5% FCS/3 days, read-out: Test Compound IC50 Value in Cell Lines
[21] = A549, A549, 5% FCS/3 days, read-out: Test Compound IC50 Value in Cell Lines
[22] = MCF7, 5% FCS/3 days, read-out: Test Compound IC50 Value in Cell Lines
[23] = HEPG2, 5% FCS/3 days, read-out: Test Compound IC50 Value in Cell Lines

| IC50 [1, 10] | IC50 [4, 12] | IC50 [5, 13] | IC50 [6] | inhibition at 10 µM ([6]; 10 μM compound) | IC50 [7, 14] | Compound | IC50 [2, 11] | IC50 [3] | IC50 [8, 18] | further results |
| --- | --- | --- | --- | --- | --- | --- | --- | --- | --- | --- |
| 2100 nM | 3400 nM | 3100 nM | > 10000 nM | 18.2% | 2300 nM | COc1ccc2c(c1)CN(C(=O)c1ccc(Cl)cc1)c1ccc(Cl)cc1C2c1ccccc1Cl (centres unmarked) [Compound 23] | 2200 nM | 1800 nM | – | – |
| – | – | – | > 10000 nM | 35.8% | – | CN1Cc2ccccc2C(c2ccccc2)c2cc(Br)ccc21 (centres unmarked) [Compound 7] | – | – | 1600 nM | IC50 [1, 15]: > 10000 nM; IC50 [2, 16]: > 10000 nM; IC50 [4, 17]: > 10000 nM |
| – | – | – | > 10000 nM | 52% | – | COc1ccc2c(c1)CNc1ccc(Cl)cc1C2c1ccccc1Cl (centres unmarked) [Compound 19] | – | – | 1600 nM | – |
| – | – | – | 1530 to 1940 nM | 63% | – | CCOC(=O)C(=O)N1Cc2ccccc2C(c2ccccc2)c2ccccc21 (centres unmarked) [Compound 10] | – | – | – | – |
| 4800 nM | > 5000 nM | 2400 nM | 71 to 99 nM | 98.3% | 4500 nM | O=C(Nc1ccc([N+](=O)[O-])cc1)N1Cc2ccccc2C(c2ccccc2Cl)c2ccccc21 (centres unmarked) [Compound 35] | 3100 nM | 4000 nM | – | IC50 [1, 15]: 10000 nM; IC50 [2, 16]: > 10000 nM; IC50 [4, 17]: > 10000 nM |
| 2600 nM | > 5000 nM | 4200 nM | > 10000 nM | 0.45% | 3400 nM | O=C(c1ccccc1)N1Cc2ccccc2C(c2ccccc2)c2ccccc21 (centres unmarked) [Compound 16] | 2700 nM | 2600 nM | 1700 nM | – |
| 1800 nM | 4200 nM | 3500 nM | > 10000 nM | 2.1% | 1900 nM | COc1ccc(C(=O)N2Cc3ccccc3C(c3ccccc3)c3ccccc32)cc1 (centres unmarked) [Compound 21] | 1500 nM | 1900 nM | 2700 nM | – |
| – | – | – | > 10000 nM | 32 to 55% | – | COc1cccc2c1C(c1ccccc1Cl)c1cc(Cl)ccc1N(C(=O)c1ccc(Cl)cc1)C2 (centres unmarked) [Compound 24] | – | – | – | – |
| – | – | – | 886 nM | 97.4% | – | Clc1ccccc1C1c2ccccc2CNc2ccccc21 (centres unmarked) [Compound 3] | – | – | 2400 nM | – |
| 1700 nM | > 5000 nM | 4500 nM | > 10000 nM | 20.6% | 2600 nM | COc1cccc(C(=O)N2Cc3ccccc3C(c3ccccc3)c3ccccc32)c1 (centres unmarked) [Compound 17] | 2500 nM | 3600 nM | 1600 nM | – |
| – | – | – | 236 nM | 97.5% | – | COC(=O)N1Cc2ccccc2C(c2ccccc2)c2ccccc21 (centres unmarked) [Compound 6] | – | – | – | IC50 [1, 15]: > 10000 nM; IC50 [2, 16]: 10000 nM; IC50 [4, 17]: > 10000 nM |
| – | – | – | > 10000 nM | 9.5% | – | Clc1ccc2c(c1)C(c1ccccc1)c1cc3ccccc3cc1CN2 (centres unmarked) [Compound 15] | – | – | – | – |
| 700 nM | 1900 nM | 1800 nM | > 10000 nM | 14.9% | 1400 nM | Cc1ccc(C(=O)N2Cc3ccccc3C(c3ccccc3)c3ccccc32)cc1 (centres unmarked) [Compound 22] | 900 nM | 1400 nM | 3600 nM | – |
| 1200 nM | 3100 nM | 2100 nM | > 10000 nM | 67.5% | 1400 nM | CNc1ccc(C(=O)N2Cc3ccccc3C(c3ccccc3Cl)c3ccccc32)cc1 (centres unmarked) [Compound 33] | 1300 nM | 1400 nM | 2400 nM | IC50 [9]: 6800 nM; IC50 [1, 19]: 6300 nM; IC50 [2, 20]: 4900 nM; IC50 [4, 21]: 6900 nM; IC50 [5, 22]: 5400 nM; IC50 [7, 23]: 6200 nM |
| 1500 nM | 3100 nM | 2700 nM | – | 0% | 1800 nM | O=C(c1ccc(Cl)cc1)N1Cc2ccccc2C(c2ccccc2)c2ccccc21 (centres unmarked) [Compound 13] | 1500 nM | 1400 nM | 1700 nM | – |
| – | – | – | > 10000 nM | 9.5% | – | O=C(O)C(=O)N1Cc2ccccc2C(c2ccccc2)c2ccccc21 (centres unmarked) [Compound 11] | – | – | – | – |
| – | – | – | – | 0% | – | O=C(Nc1ccccc1)N1Cc2ccccc2C(c2ccccc2Cl)c2ccccc21 (centres unmarked) [Compound 32] | – | – | 1100 nM | IC50 [9]: 6800 nM; IC50 [1, 19]: 6300 nM; IC50 [2, 20]: 4900 nM; IC50 [4, 21]: 6900 nM; IC50 [5, 22]: 5400 nM; IC50 [7, 23]: 6200 nM |
| 1600 nM | > 5000 nM | 2000 nM | > 10000 nM | 12% | 1500 nM | Nc1ccc(C(=O)N2Cc3ccccc3C(c3ccccc3Cl)c3ccccc32)cc1 (centres unmarked) [Compound 34] | 1200 nM | 900 nM | 4000 nM | IC50 [1, 15]: 6800 nM; IC50 [2, 16]: > 10000 nM; IC50 [4, 17]: > 10000 nM |
| – | – | – | > 10000 nM | 54.8% | – | COc1ccc2c(c1)CNc1ccccc1C2(c1ccccc1)c1ccc(F)cc1 (centres unmarked) [Compound 12] | – | – | – | – |
| – | – | – | > 10000 nM | 8.5% | – | O=C(c1ccc2ccccc2c1)N1Cc2ccccc2C(c2ccccc2)c2ccccc21 (centres unmarked) [Compound 25] | – | – | – | – |
| – | – | – | 775 nM | 75.2% | – | c1ccc(C2c3ccccc3CNc3ccccc32)cc1 (centres unmarked) [Compound 1] | – | – | – | – |
| – | – | – | 1300 nM | 99% | – | CN1Cc2ccccc2C(c2ccccc2)c2ccccc21 (centres unmarked) [Compound 2] | – | – | 5200 nM | – |
| – | – | – | 384 nM | 98.1% | – | CN1Cc2ccccc2C(c2ccccc2Cl)c2ccccc21 (centres unmarked) [Compound 4] | – | – | 1500 nM | IC50 ([1]; HT-29, HT29, 2% FCS/3 days, read-out: Test Compound IC50 Value in Cell Lines): 9700 nM; IC50 ([2]; MMRU, 2% FCS/3 days, read-out: Test Compound IC50 Value in Cell Lines): 4600 nM; IC50 ([4]; A549, A549, 2% FCS/3 days, read-out: Test Compound IC50 Value in Cell Lines): 11400 nM; IC50 ([5]; MCF7, 2% FCS/3 days, read-out: Test Compound IC50 Value in Cell Lines): 1700 nM |
| – | – | – | – | – | – | CN1Cc2ccccc2C(c2ccccc2Cl)c2ccccc21 (centres unmarked) [Compound 29] | – | – | – | IC50 [1, 15]: > 10000 nM; IC50 [2, 16]: > 10000 nM; IC50 [4, 17]: > 10000 nM; Mitogenic Assay Inhibition ([8]; 10 µM compound, NIH 3T3 mouse fibroblast cells): 99.0%; IC50 ([8]; NIH 3T3 mouse fibroblast cells): 800 nM; Gardos Channel Assay Inhibition ([6]; 10 μM compound, 10 µM): 95.1% |
| – | – | – | 502 to 692 nM | 81.5% | – | COc1cccc2c1C(c1ccccc1Cl)c1cc(Cl)ccc1NC2 (centres unmarked) [Compound 18] | – | – | 2600 nM | – |
| – | – | – | > 10000 nM | 14.4% | – | c1ccc(CN2Cc3ccccc3C(c3ccccc3)c3ccccc32)cc1 (centres unmarked) [Compound 5] | – | – | – | IC50 [1, 15]: 1000 nM; IC50 [2, 16]: > 10000 nM; IC50 [4, 17]: 1400 nM |
| – | – | – | – | 0% | – | Clc1ccccc1C1c2ccccc2CN(Cc2ccccc2)c2ccccc21 (centres unmarked) [Compound 8] | – | – | 2200 nM | – |
